Patent US20220412958A1, “METHOD FOR EVALUATING SAFETY OF SUBSTANCE IN VITRO USING HUMAN IMMORTALIZED MYELOID CELLS” (MiCAN Technologies Inc., priority 2019, published 2022)

Experiments:
iPS-ML2 [1] = test: Detection test of skin sensitizer and/or pyrogen: IL-6/IL-8 production by immortalized monocytes (ELISA); assay type: cell-based, human; settings: iPS-ML2, both 6 hr and 24 hr after culturing; negative control = culture medium alone
Source text: (§1) 1. […] 2. […] This operation was repeated once more. 3. […] 4. […] 5. […] 6. […] 7. […] 8. […] 9. […] 10.

iPS-ML2 [2] = test: Evaluation test of skin sensitizing property and/or pyrogenic property: IL-6/IL-8 production by immortalized monocytes (ELISA); assay type: cell-based, human; settings: iPS-ML2, 6 hr after addition, culture supernatant ELISA; negative control = medium alone; test substance up to 200 μg/mL
Source text: as §1

mouse = settings: in vivo; cited from earlier work

Staphylococcus aureus Cowan 1 [SAC]
production amount of IL-6 in the culture supernatant with respect to the negative control (iPS-ML2 [1]): increased as the dilution rate became smaller | production amount of IL-8 in the culture supernatant with respect to the negative control (iPS-ML2 [1]): increased as the dilution rate became smaller

CC(O)C(=O)O (centres unmarked) [N7, Lactic acid]
production of IL-6 compared with the negative control (iPS-ML2 [2]): did not show production | production of IL-8 compared with the negative control (iPS-ML2 [2]): did not show production

Nc1ccc(N)cc1 [P2, 4-Phenylenediamine]
skin sensitizing property in LLNA (mouse): have skin sensitizing property
